Data as given in publication PMC6934184, “Selective DNA-PKcs inhibition extends the therapeutic index of localized radiotherapy and chemotherapy” (The Journal of Clinical Investigation, 2019).

Target: T1, ACVR2A (Homo sapiens, UniProt P27037)
T1 construct: purchased Thermo Fisher Scientific (Life Technologies) SelectScreen
Assay: SelectScreen LanthaScreen
Type: binding
Details: read-out: % displacement
How it was run: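 Percent values come from Thermo SelectScreen profiling of NU5455, combining activity and binding assays. CSF1R was run in Z'LYTE format at Km app ATP, and CAMK1 in Adapta format with ATP listed at 10.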

T1 sequence (P27037 20-513): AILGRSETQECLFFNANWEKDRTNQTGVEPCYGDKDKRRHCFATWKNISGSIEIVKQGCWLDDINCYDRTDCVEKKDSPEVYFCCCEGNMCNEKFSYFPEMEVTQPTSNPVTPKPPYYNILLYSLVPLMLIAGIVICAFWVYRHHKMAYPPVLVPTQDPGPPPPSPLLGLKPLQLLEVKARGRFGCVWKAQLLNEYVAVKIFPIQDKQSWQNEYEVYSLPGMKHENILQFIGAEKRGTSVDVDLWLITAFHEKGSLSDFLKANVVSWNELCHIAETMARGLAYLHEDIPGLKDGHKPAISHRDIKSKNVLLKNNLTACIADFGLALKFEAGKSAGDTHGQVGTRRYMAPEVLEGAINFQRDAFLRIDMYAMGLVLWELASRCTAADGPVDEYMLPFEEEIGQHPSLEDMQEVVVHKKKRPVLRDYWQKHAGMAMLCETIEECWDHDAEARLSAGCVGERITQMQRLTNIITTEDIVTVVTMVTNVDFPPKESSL

CN(C(=O)CN1CCOCC1)c1ccc2sc3c(-c4cccc5c(=O)cc(N6CC7CCC(C6)O7)oc45)cccc3c2c1 [NU5455]
inhibition at 1 µM: 2.5%
